From patent US20220153751A1, “BIFUNCTIONAL COMPOUNDS” (BioTheryX, Inc., priority 2018, published 2022)

How the values were obtained:
Assay type in all cases: cell-based
[1] = target: T1, CK1α (Homo sapiens, UniProt P48729+Q96SW2); assay: CK1α degradation assay (Western blot, MV-4-11 cells); conditions: MV4-11, 6-8 h
T1 construct: Whole cell extracts were prepared using RIPA buffer; endogenous in cells; host or cells: MV-4-11
Protocol: (§1) MV-4-11 cells were grown in RPMI 1640 media supplemented with 10% fetal bovine serum, streptomycin and penicillin.
(§2) Cells were cultured at approximately 10^6 cells per mL and incubated in DMSO or the indicated compound for 6-8 h. Whole cell extracts were prepared using RIPA buffer according to manufacturer's protocol (Pierce). Briefly, 3×10^6 cells were washed once in PBS, the cell pellets were resuspended in RIPA buffer and allowed to incubate for 15 minutes on ice. Cells debris was removed by centrifugation and the cleared whole cell lysates were transferred to new tubes for further analysis.
(§3) For Western blot analysis, whole cell protein extracts were separated on 4-12% SDS-polyacrylamide gels, transferred to nitrocellulose and probed with the indicated primary antibodies. Membranes were subsequently washed and probed with the appropriate IRDye secondary antibodies (LI-COR). The signal was detected using the Odyssey Imaging System (LI-COR).
(§4) The following antibodies were used in these studies: Anti-eRF3/GSPT1: Abcam, ab126090 (Cambridge, Mass.); Anti-Ikaros: Abcam, ab191394 (Cambridge, Mass.); Anti-CK1α: Abcam, ab108296 (Cambridge, Mass.); Anti-CDK9: Santa Cruz Biotechnology, sc13130 (Dallas, Tex.); Anti-CDK16: Millipore Sigma, HPA001366 (St. Louis, Mo.); 3-actin (8H10comD10) mouse monoclonal antibody: Cell Signaling Technology, #3700 (Danvers, Mass.); IRDye 680RD Goat anti-rabbit antibody: LI-COR, 926-68071 (Lincoln, Nebr.); IRDye 800CW Goat anti-mouse antibody: LI-COR, 926-32210 (Lincoln, Nebr.).
(§5) CDK9 activities are shown in Table 4 at two different concentrations. CDK16 activities are shown in Table 5 at two different concentrations. In each of Tables 1-5, the % degradation values are reported as “A”, “B”, “C”, or “D”. “A” represents a % degradation value of less than 25% (value <25%). “B” represents a % degradation value of equal to or more than 25% and less than 50% (25%≤value<50%). “C” represents a % degradation value of equal to or more than 50% and less than 75% (50%≤value<75%). “D” represents a % degradation value of equal to or more than 75% (value ≥75%).

[2] = target: T2, CDK9 (Homo sapiens, UniProt P50750); assay: CDK9 degradation assay (Western blot, MV-4-11 cells); conditions: 6-8 h; for Dmax at 0.1 µM: MV4-11, 0.1 μM; for Dmax at 1 µM: MV4-11, 1 μM
T2 construct: Whole cell extracts were prepared using RIPA buffer; endogenous in cells; host or cells: MV-4-11
T2 sequence (P50750 whole entry): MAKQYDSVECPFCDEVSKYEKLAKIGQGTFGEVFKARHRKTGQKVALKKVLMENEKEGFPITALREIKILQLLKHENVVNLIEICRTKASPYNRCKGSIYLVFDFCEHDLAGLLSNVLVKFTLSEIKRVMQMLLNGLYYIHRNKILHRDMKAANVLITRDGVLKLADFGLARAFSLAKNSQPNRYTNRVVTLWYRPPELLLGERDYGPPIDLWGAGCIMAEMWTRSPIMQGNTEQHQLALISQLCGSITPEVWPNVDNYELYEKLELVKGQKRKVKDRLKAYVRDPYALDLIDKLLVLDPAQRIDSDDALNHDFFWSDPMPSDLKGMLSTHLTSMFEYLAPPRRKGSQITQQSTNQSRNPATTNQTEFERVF
Summary of the method: (§6)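 MV-4-11 cells (~10^6 cells/mL, RPMI 1640 with 10% FBS) were treated with compound or DMSO for 6-8 h. RIPA whole-cell lysates were run on SDS-PAGE, immunoblotted and detected with IRDye secondaries. % degradation is binned (<25%, 25–50%, 50–75%, ≥75%); CDK9 and CDK16 were tested at two concentrations.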

[3] = target: T3, CDK16 (Homo sapiens, UniProt Q00536); assay: CDK16 degradation assay (Western blot, MV-4-11 cells); conditions: 6-8 h; for Dmax at 0.1 µM: MV4-11, 0.1 μM; for Dmax at 1 µM: MV4-11, 1 μM
T3 construct: Whole cell extracts were prepared using RIPA buffer; endogenous in cells; host or cells: MV-4-11
T3 sequence (Q00536 whole entry): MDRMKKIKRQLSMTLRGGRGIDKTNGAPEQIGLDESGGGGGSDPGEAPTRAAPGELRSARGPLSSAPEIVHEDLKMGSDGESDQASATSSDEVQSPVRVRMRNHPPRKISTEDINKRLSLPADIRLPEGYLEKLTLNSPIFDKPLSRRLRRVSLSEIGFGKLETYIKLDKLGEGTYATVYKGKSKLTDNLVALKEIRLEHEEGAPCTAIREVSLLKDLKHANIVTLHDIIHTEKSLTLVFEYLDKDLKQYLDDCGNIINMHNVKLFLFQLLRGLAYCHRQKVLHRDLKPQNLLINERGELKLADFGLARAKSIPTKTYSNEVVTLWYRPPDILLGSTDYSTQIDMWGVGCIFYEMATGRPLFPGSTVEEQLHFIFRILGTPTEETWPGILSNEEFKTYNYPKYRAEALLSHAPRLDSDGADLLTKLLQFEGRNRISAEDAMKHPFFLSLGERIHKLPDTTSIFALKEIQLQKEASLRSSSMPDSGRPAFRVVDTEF
Summary of the method: as §6

[4] = test system: MOLM-13 cells; assay: MOLM-13 cell viability assay (CellTiter-Glo); conditions: Homo sapiens, MOLM-13, 72 h, 3 days, read-out: MOLM-13 Cell Viability % DMSO at 1 μM
Summary of the method: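 MOLM-13 cells at 2500 cells/well were exposed to compound for 3 days at 37 °C. Viability was read by CellTiter-Glo luminescence and expressed as % of DMSO control, binned A (<50%), B (50–<70%), C (70–<90%) or D (≥90%).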

[5] = target: T4, GSPT1 (Homo sapiens, UniProt P15170+Q96SW2); assay: GSPT1 degradation assay (Western blot, MV-4-11 cells); conditions: MV4-11, 6-8 h
T4 construct: Whole cell extracts were prepared using RIPA buffer; endogenous in cells; host or cells: MV-4-11
T4 sequence (P15170 whole entry): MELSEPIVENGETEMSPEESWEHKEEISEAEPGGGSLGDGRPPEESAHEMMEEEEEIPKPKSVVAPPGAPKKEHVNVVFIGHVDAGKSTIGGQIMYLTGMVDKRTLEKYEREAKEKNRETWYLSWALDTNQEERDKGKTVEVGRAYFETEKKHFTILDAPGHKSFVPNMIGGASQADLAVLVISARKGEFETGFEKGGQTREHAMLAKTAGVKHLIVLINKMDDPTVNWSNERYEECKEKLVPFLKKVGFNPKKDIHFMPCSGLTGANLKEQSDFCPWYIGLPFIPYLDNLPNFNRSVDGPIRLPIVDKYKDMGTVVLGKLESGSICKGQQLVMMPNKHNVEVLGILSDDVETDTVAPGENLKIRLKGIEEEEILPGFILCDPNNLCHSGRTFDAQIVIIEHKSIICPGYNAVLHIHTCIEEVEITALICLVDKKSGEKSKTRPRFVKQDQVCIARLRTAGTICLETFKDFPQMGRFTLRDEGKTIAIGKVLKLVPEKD
T4 sequence (Q96SW2 whole entry): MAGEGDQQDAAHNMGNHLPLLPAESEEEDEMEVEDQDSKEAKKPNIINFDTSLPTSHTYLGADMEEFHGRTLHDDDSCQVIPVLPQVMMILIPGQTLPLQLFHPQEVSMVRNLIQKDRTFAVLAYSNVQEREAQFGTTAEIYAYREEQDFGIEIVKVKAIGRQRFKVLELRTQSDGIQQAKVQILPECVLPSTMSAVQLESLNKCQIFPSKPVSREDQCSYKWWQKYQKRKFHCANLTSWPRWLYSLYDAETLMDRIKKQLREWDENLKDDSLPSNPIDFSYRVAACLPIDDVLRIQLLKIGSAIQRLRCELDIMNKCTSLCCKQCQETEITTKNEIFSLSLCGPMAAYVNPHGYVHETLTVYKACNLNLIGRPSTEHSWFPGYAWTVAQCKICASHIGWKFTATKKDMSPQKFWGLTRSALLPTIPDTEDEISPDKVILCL
T4 sequence (Q16531 whole entry partner): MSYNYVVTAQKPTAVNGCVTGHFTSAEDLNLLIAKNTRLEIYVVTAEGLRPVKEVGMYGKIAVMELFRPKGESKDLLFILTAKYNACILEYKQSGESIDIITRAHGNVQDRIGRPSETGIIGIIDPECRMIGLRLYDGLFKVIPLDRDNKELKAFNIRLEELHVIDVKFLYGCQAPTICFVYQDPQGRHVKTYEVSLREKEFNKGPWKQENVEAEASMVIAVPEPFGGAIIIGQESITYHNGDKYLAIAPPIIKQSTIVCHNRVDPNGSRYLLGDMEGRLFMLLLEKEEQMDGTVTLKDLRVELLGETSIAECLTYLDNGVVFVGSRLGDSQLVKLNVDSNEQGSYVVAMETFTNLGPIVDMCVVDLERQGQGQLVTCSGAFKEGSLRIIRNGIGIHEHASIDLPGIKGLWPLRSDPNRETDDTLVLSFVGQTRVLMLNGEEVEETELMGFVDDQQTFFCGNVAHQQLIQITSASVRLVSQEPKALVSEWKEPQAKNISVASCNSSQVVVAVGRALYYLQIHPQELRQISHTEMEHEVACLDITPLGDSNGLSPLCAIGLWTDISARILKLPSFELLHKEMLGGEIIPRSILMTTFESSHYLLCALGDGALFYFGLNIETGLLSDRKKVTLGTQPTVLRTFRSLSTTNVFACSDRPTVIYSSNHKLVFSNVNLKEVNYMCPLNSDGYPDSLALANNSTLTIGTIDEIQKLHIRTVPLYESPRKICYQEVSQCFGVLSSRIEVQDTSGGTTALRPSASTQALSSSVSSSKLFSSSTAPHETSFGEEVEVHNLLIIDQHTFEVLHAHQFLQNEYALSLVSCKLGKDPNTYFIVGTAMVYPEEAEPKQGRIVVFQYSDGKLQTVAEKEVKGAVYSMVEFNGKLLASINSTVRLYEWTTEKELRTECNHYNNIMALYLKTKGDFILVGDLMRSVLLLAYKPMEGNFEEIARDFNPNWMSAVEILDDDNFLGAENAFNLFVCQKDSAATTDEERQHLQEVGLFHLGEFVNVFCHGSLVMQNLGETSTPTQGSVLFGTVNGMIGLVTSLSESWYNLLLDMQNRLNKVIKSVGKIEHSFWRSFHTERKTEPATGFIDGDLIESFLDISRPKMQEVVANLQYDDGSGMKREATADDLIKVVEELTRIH
Protocol: as §1, §2, §3, §4, §5

[6] = test system: IL-1β; assay: IL-1β inhibition assay, LPS-induced PBMCs / CD14+ monocytes (Meso Scale); conditions: 1 h pretreatment, 100 ng/mL LPS 18-24 h
Protocol: (§7) Either frozen primary blood mononuclear cells (PBMCs) or frozen CD14+ mobilized peripheral blood monocytes were purchased from AllCells (PB003F, Normal Peripheral Blood MNC (Alameda, Calif.)). Cells were quick thawed, washed 1-time with RPMI-1640 (10% FBS/1% Pen-Strep) and plated in 96 well plates at 200,000 cells per well. Cells were pretreated with DMSO only or with the indicated compound for 1 h and then induced with 100 ng/mL lipopolysaccharide (LPS) for 18-24 h. The supernatant was analyzed for IL-1β, IL-6, and TNFα, using Meso Scale assay according to manufacturer's protocol. The negative control wells were treated with DMSO.
(§8) In Table 6, the % inhibition values are reported as “A”, “B”, “C”, or “D”. “A” represents a % inhibition value of less than 50% (value <50%). “B” represents a % inhibition value of equal to or more than 50% and less than 70% (50%≤value<70%). “C” represents a % inhibition value of equal to or more than 70% and less than 90% (70%≤value<90%). “D” represents a % inhibition value of equal or more than 90% (value ≥90%). In Table 7, the fold-change values are reported as “A”, “B”, “C”, or “D”. “A” represents a fold-change value of equal to or less than 0.1 (value ≤0.1). “B” represents a fold-change value of more than 0.1 and equal to or less than 0.5 (0.1<value≤0.5). “C” represents a fold-change value of more than 0.5 and equal to or less than 1 (0.5<value≤1). “D” represents a fold-change value of more than 1 (value >1).

[7] = test system: IL-6; assay: IL-6 inhibition assay, LPS-induced PBMCs / CD14+ monocytes (Meso Scale); conditions: 1 h pretreatment, 100 ng/mL LPS 18-24 h
Protocol: as §7, §8

[8] = test system: TNF-α; assay: TNF-α inhibition assay, LPS-induced PBMCs / CD14+ monocytes (Meso Scale); conditions: 1 h pretreatment, 100 ng/mL LPS 18-24 h
Protocol: as §7, §8

[9] = target: T5, IKAROS (Homo sapiens, UniProt Q13422+Q96SW2); assay: IKAROS degradation assay (Western blot, MV-4-11 cells); conditions: MV4-11, 6-8 h
T5 construct: endogenous in cells; host or cells: MV-4-11
T5 sequence (Q13422 whole entry): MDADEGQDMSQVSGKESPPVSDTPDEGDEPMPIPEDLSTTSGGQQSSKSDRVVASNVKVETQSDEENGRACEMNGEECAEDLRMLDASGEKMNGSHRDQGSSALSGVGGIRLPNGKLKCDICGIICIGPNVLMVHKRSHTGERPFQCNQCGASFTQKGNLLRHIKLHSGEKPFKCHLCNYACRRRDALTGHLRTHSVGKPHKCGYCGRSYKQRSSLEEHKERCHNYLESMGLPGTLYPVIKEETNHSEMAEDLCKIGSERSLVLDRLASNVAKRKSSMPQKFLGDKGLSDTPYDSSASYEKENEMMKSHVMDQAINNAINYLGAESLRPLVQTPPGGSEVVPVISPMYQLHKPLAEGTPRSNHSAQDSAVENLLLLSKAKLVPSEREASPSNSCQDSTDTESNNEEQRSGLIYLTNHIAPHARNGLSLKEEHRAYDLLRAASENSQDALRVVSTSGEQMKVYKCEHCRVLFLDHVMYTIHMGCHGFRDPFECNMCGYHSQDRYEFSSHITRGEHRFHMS
T5 sequence (Q96SW2 whole entry): as the sequence (Q96SW2 whole entry) above
T5 sequence (Q16531 whole entry partner): as the sequence (Q16531 whole entry partner) above
Protocol: as §1, §2, §3, §4, §5

T1 sequence (P48729 whole entry): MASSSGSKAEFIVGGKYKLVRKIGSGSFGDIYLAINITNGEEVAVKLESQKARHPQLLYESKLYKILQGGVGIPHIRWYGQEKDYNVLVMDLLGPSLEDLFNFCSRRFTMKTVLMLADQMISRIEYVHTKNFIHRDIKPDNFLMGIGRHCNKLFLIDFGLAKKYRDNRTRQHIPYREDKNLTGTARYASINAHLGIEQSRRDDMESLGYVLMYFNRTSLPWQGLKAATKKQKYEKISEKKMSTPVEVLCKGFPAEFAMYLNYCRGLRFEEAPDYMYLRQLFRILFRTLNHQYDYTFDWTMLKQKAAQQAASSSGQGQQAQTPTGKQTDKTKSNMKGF
T1 sequence (Q96SW2 whole entry): as the sequence (Q96SW2 whole entry) above
T1 sequence (Q16531 whole entry partner): as the sequence (Q16531 whole entry partner) above

Row | SMILES | Dmax at 1 µM [1] | Dmax at 0.1 µM [2] | Dmax at 1 µM [2] | Dmax at 0.1 µM [3] | Dmax at 1 µM [3] | Dmax at 1 µM [5] | Dmax at 1 µM [9] | viability at 1 µM [4] | inhibition at 1 µM [6] | inhibition at 1 µM [7] | inhibition at 1 µM [8]
1 | Cn1ncc(-c2nc(N[C@H]3CC[C@H](NC(=O)CCCCCCNCC(=O)NCc4ccc(COc5cccc6c5CN(C5CCC(=O)NC5=O)C6=O)cc4)CC3)ncc2Cl)c1CC1CC1 (some centres unmarked) [Compound 8, N-((1r,4r)-4-((5-chloro-4-(5-(cyclopropylmethyl)-1-methyl-1H-pyrazol-4-yl)pyrimidin-2-yl)amino)cyclohexyl)-7-((2-((4-(((2-(2,6-dioxopiperidin-3-yl)-1-oxoisoindolin-4-yl)oxy)methyl)benzyl)amino)-2-oxoethyl)amino)heptanamide] | – | – | – | – | – | < 25% | 50 to 75% | 70 to 90% | < 50% | < 50% | < 50%
2 | CC(C)(C)c1cnc(CSc2cnc(NC(=O)C3CCN(CC(=O)NCCCCNCc4ccc(OCc5scc6c5CN([C@H]5CCC(=O)NC5=O)C6=O)cc4)CC3)s2)o1 (stereo in doubt) [Compound 54, N-(5-(((5-(tert-butyl)oxazol-2-yl)methyl)thio)thiazol-2-yl)-1-(2-((4-((4-((5-(2,6-dioxopiperidin-3-yl)-4-oxo-5,6-dihydro-4H-thieno[3,4-c]pyrrol-1-yl)methoxy)benzyl)amino)butyl)amino)-2-oxoethyl)piperidine-4-carboxamide] | 50 to 75% | – | – | – | – | – | 50 to 75% | > 90% | – | – | –
3 | CC(C)(C)c1cnc(CSc2cnc(NC(=O)C3CCN(CC(=O)NCCOCCNC(=O)NCc4cccc5c4CN([C@H]4CCCC(=O)NC4=O)C5=O)CC3)s2)o1 [Compound 7, (S)—N-(5-(((5-(tert-butyl)oxazol-2-yl)methyl)thio)thiazol-2-yl)-1-(1-(2-(2,7-dioxoazepan-3-yl)-1-oxoisoindolin-4-yl)-3,11-dioxo-7-oxa-2,4,10-triazadodecan-12-yl)piperidine-4-carboxamide] | < 25% | – | – | – | – | – | < 25% | < 50% | < 50% | < 50% | < 50%
4 | CC(C)(C)c1cnc(CSc2cnc(NC(=O)C3CCN(CC(=O)NCCOCCNC(=O)NCc4ccc5c(c4)CN([C@H]4CCCC(=O)NC4=O)C5=O)CC3)s2)o1 [Compound 6, (S)—N-(5-(((5-(tert-butyl)oxazol-2-yl)methyl)thio)thiazol-2-yl)-1-(1-(2-(2,7-dioxoazepan-3-yl)-1-oxoisoindolin-5-yl)-3,11-dioxo-7-oxa-2,4,10-triazadodecan-12-yl)piperidine-4-carboxamide] | < 25% | – | – | – | – | – | 25 to 50% | < 50% | < 50% | 50 to 70% | < 50%

Now from value to molecule, other results behind:

Row | Dmax at 1 µM [1] | Dmax at 0.1 µM [2] | Dmax at 1 µM [2] | Dmax at 0.1 µM [3] | Dmax at 1 µM [3] | Dmax at 1 µM [5] | Dmax at 1 µM [9] | SMILES | viability at 1 µM [4] | inhibition at 1 µM [6] | inhibition at 1 µM [7] | inhibition at 1 µM [8]
5 | < 25% | 50 to 75% | ≥ 75% | < 25% | 50 to 75% | – | – | Cn1ncc(-c2nc(N[C@H]3CC[C@H](NCCCCCCCCNC(=O)NCc4cc5c(s4)C(=O)N(C4CCC(=O)NC4=O)C5)CC3)ncc2Cl)c1CC1CC1 (some centres unmarked) [Compound 22, 1-(8-(((1r,4r)-4-((5-chloro-4-(5-(cyclopropylmethyl)-1-methyl-1H-pyrazol-4-yl)pyrimidin-2-yl)amino)cyclohexyl)amino)octyl)-3-((5-(2,6-dioxopiperidin-3-yl)-6-oxo-5,6-dihydro-4H-thieno[2,3-c]pyrrol-2-yl)methyl)urea] | > 90% | – | – | –
6 | – | – | – | – | – | 50 to 75% | – | Cn1ncc(-c2nc(N[C@H]3CC[C@H](NCCOCCOCCOCCNCc4cc5c(s4)C(=O)N(C4CCC(=O)NC4=O)C5)CC3)ncc2Cl)c1CC1CC1 (some centres unmarked) [Compound 66, 3-(2-(13-(((1r,4r)-4-((5-chloro-4-(5-(cyclopropylmethyl)-1-methyl-1H-pyrazol-4-yl)pyrimidin-2-yl)amino)cyclohexyl)amino)-5,8,11-trioxa-2-azatridecyl)-6-oxo-4,6-dihydro-5H-thieno[2,3-c]pyrrol-5-yl)piperidine-2,6-dione] | 50 to 70% | < 50% | < 50% | < 50%
7 | 50 to 75% | – | – | – | – | – | ≥ 75% | Cn1ncc(-c2nc(N[C@H]3CC[C@H](NCCOCCOCCOCCNCc4ccc(OCc5scc6c5CN([C@H]5CCC(=O)NC5=O)C6=O)cc4)CC3)ncc2Cl)c1CC1CC1 [Compound 69, (S)-3-(1-((4-(13-(((1r,4r)-4-((5-chloro-4-(5-(cyclopropylmethyl)-1-methyl-1H-pyrazol-4-yl)pyrimidin-2-yl)amino)cyclohexyl)amino)-5,8,11-trioxa-2-azatridecyl)phenoxy)methyl)-4-oxo-4H-thieno[3,4-c]pyrrol-5(6H)-yl)piperidine-2,6-dione] | < 50% | 70 to 90% | < 50% | 70 to 90%
8 | – | – | – | – | – | 50 to 75% | – | Cn1ncc(-c2nc(N[C@H]3CC[C@H](NCC(=O)NCCOCCOCCOCCNCC(=O)NCc4cc5c(s4)C(=O)N(C4CCC(=O)NC4=O)C5)CC3)ncc2Cl)c1CC1CC1 (some centres unmarked) [Compound 43, 14-(2-(((1r,4r)-4-((5-chloro-4-(5-(cyclopropylmethyl)-1-methyl-1H-pyrazol-4-yl)pyrimidin-2-yl)amino)cyclohexyl)amino)acetamido)-N-((5-(2,6-dioxopiperidin-3-yl)-6-oxo-5,6-dihydro-4H-thieno[2,3-c]pyrrol-2-yl)methyl)-6,9,12-trioxa-3-azatetradecanamide] | 50 to 70% | < 50% | < 50% | < 50%
9 | – | 50 to 75% | ≥ 75% | 50 to 75% | ≥ 75% | 25 to 50% | 50 to 75% | Cn1ncc(-c2nc(N[C@H]3CC[C@H](NCC(=O)NCCCCCNCC(=O)NCc4scc5c4CN(C4CCC(=O)NC4=O)C5=O)CC3)ncc2F)c1CC1CC1 (some centres unmarked) [Compound 32, 2-(((1r,4r)-4-((4-(5-(cyclopropylmethyl)-1-methyl-1H-pyrazol-4-yl)-5-fluoropyrimidin-2-yl)amino)cyclohexyl)amino)-N-(5-((2-(((5-(2,6-dioxopiperidin-3-yl)-4-oxo-5,6-dihydro-4H-thieno[3,4-c]pyrrol-1-yl)methyl)amino)-2-oxoethyl)amino)pentyl)acetamide] | > 90% | – | – | –
